In the supplement of paper PMC11061612:

Key:
[1] = test system: NCI-H1666 (Lung Adenocarcinoma); assay: Bliss excess, mean over the matrix (fraction); higher = more synergy
Summary of the method: (§1)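 After 24 hours at 37°C and 5% CO2 in 1536-well plates, cells in DMEM/F12 or RPMI plus 10% FBS received two-drug dose matrices for 72 hours. Viability came from CellTiter-Glo 2.0 luminescence and was scaled as inhibition, anchored at 0 by vehicle wells and at 1 by blank wells. Combination Emax is taken as the second-highest inhibition in the matrix, and Bliss excess as the observed combination effect less EA + EB − EA·EB, with EA and EB the single-agent effects.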

[2] = test system: CAL-29 (Bladder Carcinoma); assay: as above
Summary of the method: as §1

[3] = test system: NCI-H1581 (Non-Small Cell Lung Carcinoma); assay: as above
Summary of the method: as §1

[4] = test system: A549 (Lung Adenocarcinoma); assay: as above
Summary of the method: as §1

[5] = test system: NY (Osteosarcoma); assay: as above
Summary of the method: as §1

[6] = test system: NCI-H1650 (Lung Adenocarcinoma); assay: as above
Summary of the method: as §1

[7] = test system: TT (Thyroid Gland Carcinoma); assay: as above
Summary of the method: as §1

[8] = test system: PA-1 (Ovarian Carcinoma); assay: as above
Summary of the method: as §1

[9] = test system: A3-KAW (B-Cell Non-Hodgkin's Lymphoma); assay: as above
Summary of the method: as §1

[10] = test system: COLO-320-HSR (Colorectal Carcinoma); assay: as above
Summary of the method: as §1

[11] = test system: SK-MES-1 (Squamous Cell Lung Carcinoma); assay: as above
Summary of the method: as §1

[12] = test system: A498 (Kidney Carcinoma); assay: as above
Summary of the method: as §1

[13] = test system: BICR22 (Oral Cavity Carcinoma); assay: as above
Summary of the method: as §1

[14] = test system: COR-L311 (Small Cell Lung Carcinoma); assay: as above
Summary of the method: as §1

[15] = test system: SK-MG-1 (Low Grade Glioma); assay: as above
Summary of the method: as §1

[16] = test system: CAS-1 (Glioblastoma); assay: as above
Summary of the method: as §1

[17] = test system: U-2-OS (Osteosarcoma); assay: as above
Summary of the method: as §1

[18] = test system: HCC1954 (Breast Carcinoma); assay: combination Emax (second highest fraction inhibited in the dose matrix, 72 h); higher = more inhibition; extreme values may be limits of the assay
Summary of the method: as §1

[19] = test system: TT2609-C02 (Thyroid Gland Carcinoma); assay: as above
Summary of the method: as §1

[20] = test system: FU97 (Gastric Carcinoma); assay: as above
Summary of the method: as §1
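For Bliss excess, mean over the matrix in this document: after 72 h of two-drug dosing.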

Compound | Bliss excess [1] | Bliss excess [2] | Bliss excess [3] | Bliss excess [4] | Bliss excess [5] | Bliss excess [6] | Bliss excess [7] | Bliss excess [8] | Bliss excess [9] | Bliss excess [10] | Bliss excess [11] | Bliss excess [12] | Bliss excess [13] | Bliss excess [14] | Bliss excess [15] | Bliss excess [16] | Bliss excess [17] | combination Emax [18] | combination Emax [19] | combination Emax [20]
COc1nnc2ccc(N3CCC(c4ccc(OCCN5CCN(C)C(=O)[C@H]5C)cc4)CC3)nn12 [AZD5153] + Cn1cnc2c(F)c(Nc3ccc(Br)cc3Cl)c(C(=O)NOCCO)cc21 [Selumetinib] (first compound max 1 µM, 7x7, partner max 10 µM) | -0.0631 | 0.0393 | -0.0141 | -0.0703 | -0.005 | -0.0155 | -0.0018 | 0.0002 | 0.0182 | -0.0095 | -0.0219 | 0.0016 | 0.0497 | -0.0334 | -0.0443 | -0.0548 | -0.0291 | 0.263 | 0.652 | 0.701
Cc1c2c(nn1C)CSCc1cc(n(C)n1)CSc1cc(c3ccccc3c1)OCCCc1c(C(=O)O)n(C)c3c-2c(Cl)ccc13 [AZD5991] + C1CN(CCC1(C(=O)N[C@@H](CCO)C2=CC=C(C=C2)Cl)N)C3=NC=NC4=C3C=CN4 [Capivasertib] (first compound max 1 µM, 7x7, partner max 3 µM) | 0.0151 | -0.0211 | -0.0048 | -0.0312 | 0.0079 | 0.012 | -0.0499 | 0.0437 | 0.0236 | 0.0007 | 0.0568 | -0.0091 | 0.119 | 0.0059 | 0.0354 | -0.0094 | 0.0114 | 0.996 | 0.227 | 0.485
Cc1c2c(nn1C)CSCc1cc(n(C)n1)CSc1cc(c3ccccc3c1)OCCCc1c(C(=O)O)n(C)c3c-2c(Cl)ccc13 [AZD5991] + C=CCn1c(=O)c2cnc(Nc3ccc(N4CCN(C)CC4)cc3)nc2n1-c1cccc(C(C)(C)O)n1 [AZD1775] (first compound max 1 µM, partner max 1 µM) | 0.0037 | 0.0878 | -0.0365 | -0.0488 | -0.0177 | 0.0047 | 0.007 | -0.0288 | 0.0126 | 0.045 | -0.0183 | 0.0231 | -0.0107 | -0.0655 | 0.0333 | 0.0452 | 0.0183 | 0.978 | 0.617 | 0.436
Cc1c2c(nn1C)CSCc1cc(n(C)n1)CSc1cc(c3ccccc3c1)OCCCc1c(C(=O)O)n(C)c3c-2c(Cl)ccc13 [AZD5991] + CC1(C)CCC(CN2CCN(c3ccc(C(=O)NS(=O)(=O)c4ccc(NCC5CCOCC5)c([N+](=O)[O-])c4)c(Oc4cnc5[nH]ccc5c4)c3)CC2)=C(c2ccc(Cl)cc2)C1 [Venetoclax] (first compound max 1 µM, 7x7, partner max 1 µM) | -0.0478 | 0.0101 | -0.0061 | -0.0642 | 0.0232 | -0.0246 | 0.0887 | 0.0664 | 0.0191 | 0.0419 | -0.0302 | -0.108 | 0.0003 | 0.157 | -0.0221 | -0.0284 | -0.0011 | 0.967 | 0.178 | 0.243
Cc1c2c(nn1C)CSCc1cc(n(C)n1)CSc1cc(c3ccccc3c1)OCCCc1c(C(=O)O)n(C)c3c-2c(Cl)ccc13 [AZD5991] + CCN(CCO)CCCOc1ccc2c(Nc3cc(CC(=O)Nc4cccc(F)c4)[nH]n3)ncnc2c1 [AZD2811] (first compound max 1 µM, 7x7, partner max 1 µM) | -0.0133 | 0.072 | 0.108 | -0.0592 | 0.0542 | 0.0357 | -0.0735 | 0.0489 | 0.0434 | 0.0198 | 0.0098 | 0.0054 | 0.0418 | -0.0057 | 0.0619 | 0.061 | 0.0091 | 0.98 | 0.456 | 0.284
Cc1c2c(nn1C)CSCc1cc(n(C)n1)CSc1cc(c3ccccc3c1)OCCCc1c(C(=O)O)n(C)c3c-2c(Cl)ccc13 [AZD5991] + CN(C)CCCOc1ccc(-c2ccc3ncc4c(c3c2)n(C2CCOCC2)c(=O)n4C)cn1 [AZD0156] (first compound max 1 µM, 7x7, partner max 1 µM) | 0.0068 | 0.0308 | 0.0383 | -0.026 | 0.0299 | -0.0398 | -0.071 | 0.004 | -0.0252 | 0.0531 | -0.0029 | -0.0274 | 0.016 | -0.0088 | 0.0058 | 0.0497 | 0.0132 | 0.978 | 0.212 | 0.318
Cc1c2c(nn1C)CSCc1cc(n(C)n1)CSc1cc(c3ccccc3c1)OCCCc1c(C(=O)O)n(C)c3c-2c(Cl)ccc13 [AZD5991] + C[C@@H]1COCCN1C2=NC(=NC(=C2)C3(CC3)[S@](=N)(=O)C)C4=C5C=CNC5=NC=C4 [AZD6738] (first compound max 1 µM, 7x7, partner max 10 µM) | 0.0156 | 0.0409 | -0.0036 | 0.0007 | 0.0486 | 0.0392 | -0.0066 | 0.0702 | 0.0161 | 0.0363 | -0.0119 | 0.107 | 0.0224 | 0.0018 | 0.0868 | 0.109 | 0.0276 | 0.991 | 0.392 | 0.392
Cc1c2c(nn1C)CSCc1cc(n(C)n1)CSc1cc(c3ccccc3c1)OCCCc1c(C(=O)O)n(C)c3c-2c(Cl)ccc13 [AZD5991] + C[C@@H](Nc1cc(F)cc(F)c1)c1cc(C(=O)N(C)C)cc2c(=O)cc(N3CCOCC3)oc12 [AZD8186] (first compound max 1 µM, 7x7, partner max 3 µM) | -0.0359 | 0.0096 | -0.0068 | 0.01 | 0.08 | 0.0221 | -0.0219 | 0.049 | -0.0084 | -0.0004 | 0.052 | -0.0252 | -0.0014 | -0.0098 | -0.0124 | -0.0108 | -0.0073 | 0.974 | 0.303 | 0.445
Cc1c2c(nn1C)CSCc1cc(n(C)n1)CSc1cc(c3ccccc3c1)OCCCc1c(C(=O)O)n(C)c3c-2c(Cl)ccc13 [AZD5991] + Cc1cc2ncnn2cc1Nc1ncc2c(n1)n(C1CCOCC1)c(=O)n2C [AZD7648] (first compound max 1 µM, 7x7, partner max 10 µM) | -0.0666 | 0.014 | -0.0026 | -0.111 | -0.0319 | -0.0408 | -0.0112 | -0.0774 | -0.0101 | -0.0184 | -0.0471 | -0.0249 | 0.0158 | 0.0101 | -0.0349 | -0.0723 | -0.0318 | 0.992 | 0.205 | 0.293
Cc1c2c(nn1C)CSCc1cc(n(C)n1)CSc1cc(c3ccccc3c1)OCCCc1c(C(=O)O)n(C)c3c-2c(Cl)ccc13 [AZD5991] + Cn1cnc2c(F)c(Nc3ccc(Br)cc3Cl)c(C(=O)NOCCO)cc21 [Selumetinib] (first compound max 1 µM, 7x7, partner max 3 µM) | 0.0499 | 0.0436 | 0.0803 | -0.0344 | -0.0312 | -0.0083 | -0.0526 | 0.0085 | 0.045 | 0.0173 | 0.0132 | 0.0133 | 0.127 | -0.0212 | 0.0044 | -0.0036 | 0.0109 | 0.982 | 0.569 | 0.411
C[C@@H]1COCCN1c1cc(C2([S@](C)(=N)=O)CC2)nc(-c2ccnc3[nH]ccc23)n1 [AZD6738] + O=C(c1cc(Cc2n[nH]c(=O)c3ccccc23)ccc1F)N1CCN(C(=O)C2CC2)CC1 [Olaparib] (first compound max 10 µM, 7x7, partner max 10 µM) | 0.0073 | -0.0405 | 0.0166 | 0.0273 | -0.0521 | -0.0152 | -0.0219 | 0.0046 | -0.0085 | -0.0357 | -0.0324 | -0.0403 | 0.003 | -0.0507 | 0.0121 | 0.0743 | 0.0257 | 0.353 | 0.316 | 0.332
Cc1cc2ncnn2cc1Nc1ncc2c(n1)n(C1CCOCC1)c(=O)n2C [AZD7648] + C=CCn1c(=O)c2cnc(Nc3ccc(N4CCN(C)CC4)cc3)nc2n1-c1cccc(C(C)(C)O)n1 [AZD1775] (first compound max 10 µM, partner max 1 µM) | 0.0305 | -0.0241 | -0.0334 | -0.0718 | -0.0547 | 0.0097 | -0.0215 | -0.0024 | 0.0521 | -0.0082 | 0.0167 | 0.0207 | -0.0323 | -0.119 | 0.009 | 0.0219 | 0.0232 | 0.483 | 0.304 | 0.397
Cc1cc2ncnn2cc1Nc1ncc2c(n1)n(C1CCOCC1)c(=O)n2C [AZD7648] + CCN(CCO)CCCOc1ccc2c(Nc3cc(CC(=O)Nc4cccc(F)c4)[nH]n3)ncnc2c1 [AZD2811] (first compound max 10 µM, 7x7, partner max 1 µM) | -0.0087 | 0.0545 | 0.0122 | -0.0025 | 0.0076 | 0.0142 | -0.0266 | 0.0239 | 0.0762 | 0.0372 | -0.0011 | -0.0049 | 0.0239 | -0.0806 | 0.0477 | 0.0895 | 0.0294 | 0.342 | 0.244 | 0.337
Cc1cc2ncnn2cc1Nc1ncc2c(n1)n(C1CCOCC1)c(=O)n2C [AZD7648] + CN(C)CCCOc1ccc(-c2ccc3ncc4c(c3c2)n(C2CCOCC2)c(=O)n4C)cn1 [AZD0156] (first compound max 10 µM, 7x7, partner max 1 µM) | -0.0072 | -0.0282 | 0.0088 | -0.0192 | -0.0172 | -0.0133 | -0.0269 | -0.0117 | 0.162 | 0.0391 | 0.0394 | -0.0212 | -0.0192 | -0.054 | 0.0047 | -0.0246 | 0.0103 | 0.307 | 0.0937 | 0.382
